Test results from patent US20150031535A1, “Liquid concentrate formulation containing a pyripyropene insecticide III” (BASF SE, priority 2012, published 2015).

Tests used:
[1] = Precipitation from a solution of Insecticide A in Solvent A on continued agitation at room temperature (Example 1, comparative); type: physicochemical
Protocol: A solution of Insecticide A (pyripyropene derivative I) in Solvent A was prepared by slowly adding 4.98 parts by weight of Insecticide A to well agitated 63.92 parts by weight of Solvent A at room temperature. It typically took 1 to 3 hours for complete dissolution depending on the addition rate of Insecticide A and on the mode of agitation. After the agitation had been continued for additional approximately 12 hours the clear solution started to turn cloudy, indicating the precipitation of Solvent A solvate crystals of Insecticide A. Microscopy analysis confirmed that the precipitation was indeed crystalline.

[2] = Solvate crystal growth in seeded solutions of Insecticide A in 2-heptanone/Solvent A mixtures (Example 2); type: physicochemical; details: seeded with Solvent A solvate crystals, 22° C., one month
Protocol: Four solutions of 2-heptanone in Solvent A were prepared by mixing 1 part by weight of 2-heptanone with 2, 4, 6 and 8 parts by weight, respectively, of solvent A. Then Insecticide A was dissolved in each of these solutions by slowly adding 4.98 parts by weight of Insecticide A to well agitated 63.92 parts by weight of the respective solution at room temperature. It typically took 1 to 3 hours for complete dissolution. After Insecticide A was fully dissolved, each of the four samples was seeded with the Solvent A solvate crystals of Insecticide A prepared in Example 1. Then the four samples were kept at 22° C. for one month and afterwards were visually inspected for solvate crystal growth.

Structure (SMILES): C[C@]1(COC(=O)C2CC2)[C@@H]2C[C@H](O)[C@@]3(C)Oc4cc(-c5cccnc5)oc(=O)c4[C@H](O)[C@@H]3[C@@]2(C)CC[C@@H]1OC(=O)C1CC1 [Insecticide A]
- microscopy analysis of the precipitation ([1]; 4.98 parts Insecticide A in 63.92 parts Solvent A): crystalline
- additional agitation time after which the clear solution started to turn cloudy (precipitation of Solvent A solvate crystals) ([1]; 4.98 parts by weight Insecticide A in 63.92 parts by weight Solvent A, after complete dissolution): approximately 12 hours
- solvate crystal growth (visual inspection) ([2]; 2-heptanone to Solvent A ratio 1:2): no crystal growth was observed
- solvate crystal growth (visual inspection) ([2]; 2-heptanone to Solvent A ratio 1:4): no crystal growth was observed
- solvate crystal growth (visual inspection) ([2]; 2-heptanone to Solvent A ratio 1:6): crystal growth was detected
- solvate crystal growth (visual inspection) ([2]; 2-heptanone to Solvent A ratio 1:8): crystal growth was detected
